A short description of series [1]: Selectivity ratio of IC50 for inhibition of human CYP11B2 to IC50 for inhibition of human CYP11B1. It is filed as ADME.
Another series has as its target T1, Aromatase (Homo sapiens, UniProt P11511).
T1 sequence (P11511 whole entry): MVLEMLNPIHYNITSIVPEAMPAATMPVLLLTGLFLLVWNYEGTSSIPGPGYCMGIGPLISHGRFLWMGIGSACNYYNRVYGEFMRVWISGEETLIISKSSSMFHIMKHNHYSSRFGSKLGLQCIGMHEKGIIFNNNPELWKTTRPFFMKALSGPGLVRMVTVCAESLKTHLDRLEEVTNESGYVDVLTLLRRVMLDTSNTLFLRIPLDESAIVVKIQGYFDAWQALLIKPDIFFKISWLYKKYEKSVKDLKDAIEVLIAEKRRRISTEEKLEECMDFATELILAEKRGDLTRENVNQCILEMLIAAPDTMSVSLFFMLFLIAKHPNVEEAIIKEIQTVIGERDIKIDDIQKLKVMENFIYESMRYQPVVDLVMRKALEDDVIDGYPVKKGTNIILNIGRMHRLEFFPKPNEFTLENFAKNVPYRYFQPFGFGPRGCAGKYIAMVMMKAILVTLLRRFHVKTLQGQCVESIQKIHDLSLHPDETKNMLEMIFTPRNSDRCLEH
Kind of series: Inhibition of human placental microsome CYP19 using [1beta-3H]-androstenedione as substrate. It is filed as ADME, microsomes, Placenta.

Series [2] has as its target T2, Cytochrome P450 11B1, mitochondrial (Homo sapiens, UniProt P15538).
T2 sequence (P15538 whole entry): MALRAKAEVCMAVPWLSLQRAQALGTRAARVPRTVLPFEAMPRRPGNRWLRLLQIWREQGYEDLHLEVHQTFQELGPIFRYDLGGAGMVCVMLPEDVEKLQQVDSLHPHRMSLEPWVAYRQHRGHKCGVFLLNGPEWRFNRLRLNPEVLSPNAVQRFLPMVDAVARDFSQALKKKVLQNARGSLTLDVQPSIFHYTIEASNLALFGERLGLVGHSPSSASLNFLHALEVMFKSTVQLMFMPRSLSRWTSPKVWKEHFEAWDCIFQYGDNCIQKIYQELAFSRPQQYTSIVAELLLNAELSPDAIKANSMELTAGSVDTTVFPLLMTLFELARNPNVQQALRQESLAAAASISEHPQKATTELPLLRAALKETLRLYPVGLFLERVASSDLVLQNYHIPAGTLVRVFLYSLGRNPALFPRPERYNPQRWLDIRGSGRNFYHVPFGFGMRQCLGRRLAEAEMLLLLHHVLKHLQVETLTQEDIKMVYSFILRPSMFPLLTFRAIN
Kind of series: Inhibition of human CYP11B1 expressed in Chinese hamster V79 MZh cells using [14C]-deoxycorticosteron as substrate measured after 6 hrs by phosphoimager analysis. Format: ADME, cell-based.

The target in a further series is T3, Cytochrome P450 1A2 (Homo sapiens, UniProt P05177).
T3 sequence (P05177 whole entry): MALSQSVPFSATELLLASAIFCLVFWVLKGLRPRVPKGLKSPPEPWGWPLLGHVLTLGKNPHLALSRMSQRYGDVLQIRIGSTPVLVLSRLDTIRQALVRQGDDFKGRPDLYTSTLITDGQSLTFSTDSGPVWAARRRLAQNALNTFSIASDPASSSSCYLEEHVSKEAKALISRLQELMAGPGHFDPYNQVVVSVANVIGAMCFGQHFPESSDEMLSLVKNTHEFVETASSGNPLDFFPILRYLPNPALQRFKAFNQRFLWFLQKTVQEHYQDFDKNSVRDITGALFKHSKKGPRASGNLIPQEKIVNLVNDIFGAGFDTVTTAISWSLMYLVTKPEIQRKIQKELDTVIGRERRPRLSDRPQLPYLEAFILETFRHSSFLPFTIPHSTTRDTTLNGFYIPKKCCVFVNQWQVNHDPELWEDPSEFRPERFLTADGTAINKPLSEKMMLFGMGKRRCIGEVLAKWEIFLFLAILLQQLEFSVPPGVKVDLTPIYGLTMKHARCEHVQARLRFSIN
In words: Inhibition of human hepatic recombinant CYP1A2 using cocktail of substrate by LC-MS/MS analysis. Format: ADME.

In the next series the target is Cytochrome P450 2C9 (Homo sapiens, UniProt P11712). In words: Inhibition of human hepatic recombinant CYP2C9 using cocktail of substrate by LC-MS/MS analysis. It is filed as ADME.
The target of the next series is Cytochrome P450 2C19 (Homo sapiens, UniProt P33261). In words: Inhibition of human hepatic recombinant CYP2C19 using cocktail of substrate by LC-MS/MS analysis. Format: ADME.
Another series concerns the target Cytochrome P450 3A4 (Homo sapiens, UniProt P08684). In words: Inhibition of human hepatic recombinant CYP3A using cocktail of substrate by LC-MS/MS analysis. It is filed as ADME.
Series [3] is described as follows: Aqueous solubility of compound. Format: physicochemical. Particulars: buffer.
Series [4] can be described thus: Cytotoxicity against human HepG2 cells assessed as reduction in cell viability. Format: toxicity, cell-based. Particulars: read-out: LC50 (the source's name).
Series [5] can be described thus: Cytotoxicity against Chinese hamster V79 cells assessed as reduction in cell viability. The settings on record: read-out: LC50 (the source's name). It is filed as toxicity, cell-based, Cricetulus griseus.
Series [6] is described as follows: Cmax in Sprague-Dawley rat at 5 mg/kg, iv measured up to 24 hrs by LC-MS analysis. The settings on record: in vivo. Set-up: dose 5 mg/kg, time < 24 hrs, route iv. It is filed as ADME, organism-based.
Series [7] in a line: Cmax in Sprague-Dawley rat at 25 mg/kg, po measured up to 24 hrs by LC-MS analysis. Also on record: dose 25 mg/kg, time < 24 hrs, route po. The settings on record: in vivo. Format: ADME, organism-based.
Series [8] can be described thus: Tmax in Sprague-Dawley rat at 5 mg/kg, iv measured up to 24 hrs by LC-MS analysis. Format: ADME, organism-based. Particulars: in vivo.
A short description of series [9]: AUC (0 to infinity) in Sprague-Dawley rat at 5 mg/kg, iv measured up to 24 hrs by LC-MS analysis. It is filed as ADME, organism-based. Set-up: time < 24 hrs, dose 5 mg/kg, route iv. The settings on record: in vivo.
A short description of series [10]: Bioavailability in Sprague-Dawley rat at 5 mg/kg, iv measured up to 24 hrs by LC-MS analysis. Format: ADME, organism-based. Particulars: in vivo.
A short description of series [11]: Reduction of cortisol elevation in Sprague-Dawley rat at 25 mg/kg, po measured after 4 hrs by liquid chromatography-tandem mass spectrometry analysis (reference value: 376+/- 22 ng/L). It is filed as functional.
Series [12] addresses T4, Cytochrome P450 11B1, mitochondrial (Rattus norvegicus, UniProt P15393).
T4 sequence (P15393 whole entry): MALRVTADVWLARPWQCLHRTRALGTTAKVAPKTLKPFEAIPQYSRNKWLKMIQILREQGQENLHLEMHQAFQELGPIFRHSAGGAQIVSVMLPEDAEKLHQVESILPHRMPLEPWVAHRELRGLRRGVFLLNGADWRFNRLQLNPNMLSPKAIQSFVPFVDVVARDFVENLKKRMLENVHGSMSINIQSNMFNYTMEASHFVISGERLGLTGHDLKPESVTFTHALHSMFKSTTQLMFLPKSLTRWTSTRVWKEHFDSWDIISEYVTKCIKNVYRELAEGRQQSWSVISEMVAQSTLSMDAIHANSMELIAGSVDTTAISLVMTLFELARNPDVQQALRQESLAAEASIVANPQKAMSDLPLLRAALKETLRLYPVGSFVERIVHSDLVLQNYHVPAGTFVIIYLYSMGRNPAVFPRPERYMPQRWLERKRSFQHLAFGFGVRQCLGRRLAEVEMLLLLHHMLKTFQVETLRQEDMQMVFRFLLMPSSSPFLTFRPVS
In words: Inhibition of rat CYP11B1. It is filed as ADME.

The structures appear in SMILES notation. ≈ marks a conversion by molar mass, not a printed value.

Chain of Cytochrome P450 2C19 (P33261 whole entry): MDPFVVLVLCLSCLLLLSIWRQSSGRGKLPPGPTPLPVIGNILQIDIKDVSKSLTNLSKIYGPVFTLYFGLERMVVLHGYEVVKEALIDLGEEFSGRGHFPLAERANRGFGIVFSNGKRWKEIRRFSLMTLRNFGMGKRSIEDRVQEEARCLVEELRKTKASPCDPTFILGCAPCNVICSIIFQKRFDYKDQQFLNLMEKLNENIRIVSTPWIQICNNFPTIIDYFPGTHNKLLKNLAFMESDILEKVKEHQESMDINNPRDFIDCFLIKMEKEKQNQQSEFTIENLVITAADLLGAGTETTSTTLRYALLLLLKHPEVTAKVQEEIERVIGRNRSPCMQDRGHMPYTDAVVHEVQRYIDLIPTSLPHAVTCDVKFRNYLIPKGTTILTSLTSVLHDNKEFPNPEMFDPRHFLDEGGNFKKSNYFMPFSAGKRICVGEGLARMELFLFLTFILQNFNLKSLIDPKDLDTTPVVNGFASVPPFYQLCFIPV
Chain of Cytochrome P450 2C9 (P11712 whole entry): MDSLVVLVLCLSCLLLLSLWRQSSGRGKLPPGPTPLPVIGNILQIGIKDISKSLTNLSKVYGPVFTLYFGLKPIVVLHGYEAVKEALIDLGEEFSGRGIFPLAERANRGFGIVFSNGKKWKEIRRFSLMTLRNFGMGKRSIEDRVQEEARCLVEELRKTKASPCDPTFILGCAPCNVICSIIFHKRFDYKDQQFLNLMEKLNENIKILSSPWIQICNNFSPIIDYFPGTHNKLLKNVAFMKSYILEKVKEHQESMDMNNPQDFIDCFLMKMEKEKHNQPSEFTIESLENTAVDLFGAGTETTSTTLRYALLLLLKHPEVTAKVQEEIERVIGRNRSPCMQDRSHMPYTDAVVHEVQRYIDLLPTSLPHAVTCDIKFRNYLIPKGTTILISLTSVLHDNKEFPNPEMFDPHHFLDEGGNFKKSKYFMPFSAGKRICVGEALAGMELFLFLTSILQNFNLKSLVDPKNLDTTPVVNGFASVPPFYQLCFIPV
Chain of Cytochrome P450 3A4 (P08684 whole entry): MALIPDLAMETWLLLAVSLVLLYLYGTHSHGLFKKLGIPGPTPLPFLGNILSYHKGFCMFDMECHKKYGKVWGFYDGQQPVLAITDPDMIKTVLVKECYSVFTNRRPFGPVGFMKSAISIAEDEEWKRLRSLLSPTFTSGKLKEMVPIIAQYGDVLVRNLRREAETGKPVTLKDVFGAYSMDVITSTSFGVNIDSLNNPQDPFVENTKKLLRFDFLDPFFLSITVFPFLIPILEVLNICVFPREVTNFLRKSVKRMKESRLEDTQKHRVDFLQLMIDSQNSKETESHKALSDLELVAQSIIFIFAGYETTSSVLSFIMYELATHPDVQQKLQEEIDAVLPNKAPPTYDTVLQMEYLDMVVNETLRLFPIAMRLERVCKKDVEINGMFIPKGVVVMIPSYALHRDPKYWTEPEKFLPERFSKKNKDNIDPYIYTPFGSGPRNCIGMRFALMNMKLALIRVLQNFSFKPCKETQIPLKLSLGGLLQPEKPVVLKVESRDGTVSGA

Regarding `O=C(Nc1ccc2[nH]ncc2c1)[C@]12ON=C(c3cccnc3)[C@H]1[C@@H]1CC[C@H]2C1`, in series [1], the “Ratio IC50” value is reported as 125. Besides, the IC50 on Aromatase is over 10 µM; in series [2], 0.009 µM; at Cytochrome P450 1A2, over 10 µM; on Cytochrome P450 2C9, over 10 µM; on Cytochrome P450 2C19, over 10 µM; on Cytochrome P450 3A4, over 10 µM. This molecule also registered a concentration for half-maximal inhibition (IC50) in series [12] of 0.025 µM. Moreover, in series [3], the concentration in solution (solubility) was 196 µM (≈ 73.2 µg/mL). Also, the CC50 in series [4] and in series [5] was over 50 µM in each case. Also, the values for the Cmax in series [6] and in series [7] were 12700 ng/mL and 7990 ng/mL, respectively. The Tmax in series [8] was determined as 0 h. For the same molecule, the area under the curve (AUC) in series [9] worked out at 50928.7 ng·h/mL. The molecule also showed a bioavailability in series [10] of 21.4%. The molecule further showed an Activity in [11] of 28 ng/L.
